This passage reports Sleeping time results from ChEMBL document CHEMBL1134866, “Design, synthesis, and biological evaluation of novel, centrally-acting thyrotropin-releasing hormone analogues” (2002).

The test system of this experiment is Mus musculus. Description: Compound was intravenously injected into Swiss Webstar mice tail vein, the sleeping time was recorded as the time elapsed from the loss of righting reflex. It counts as functional.
For the molecule `NC(=O)C1=CN(CCC[C@H](NC(=O)[C@@H]2CCC(=O)N2)C(=O)N2CCC[C@H]2C(N)=O)C=CC1`, the Sleeping time is recorded as about 59 min.

Turning to `NC(=O)C1=CN(CCCCC(NC(=O)[C@@H]2CCC(=O)N2)C(=O)N2CCC[C@H]2C(N)=O)C=CC1` (some centres undefined), the Sleeping time is given as about 47 min.

As for `NC(=O)C1=CN(C[C@H](NC(=O)[C@@H]2CCC(=O)N2)C(=O)N2CCC[C@H]2C(N)=O)C=CC1`, the Sleeping time came out at 19.3 min.

`NC(=O)C1=CN(CCC(NC(=O)[C@@H]2CCC(=O)N2)C(=O)N2CCC[C@H]2C(N)=O)C=CC1` (some centres undefined) gave a Sleeping time of about 45 min.
